Reference: US20250255847A1, “[…]s: Novel Drugs for Triple Negative Breast Cancer” (SIMMARON RSEARCH INC, priority 2024, published 2025)

Legend:
[1] = tested on: human mammary epithelial cells (HMECs); test: LDH assay in healthy human mammary epithelial cells; format: cell-based; settings: 1, 2, 5, 10 and higher nM doses, 48 hrs
Experimental: FIG. 11 illustrates an embodiment of the present invention and illustrates SIM-1 and SIM-2 induced apoptosis in MDA-MB-468 TNBC cells, but not HMEC control cells. MDA-MB-468 cells were treated with increasing doses of (A) SIM-1 and (B) SIM-2 for 48 hrs followed by lactate dehydrogenase (LDH) release assay in the supernatants. The result was offset with cell-bound LDH and presented as a percent of DMSO control as discussed under method section. Half-maximal cytotoxicity or CT50 analyses were performed plotting maximum response as an index of increasing doses of (C) SIM-1 and (D) SIM-2. AnnexinV (green) and propidium iodide (red) dual-labeling were performed to evaluate apoptotic response in MDA-MB-468 cells once treated with increasing doses of (E) SIM-1 and (F) SIM-2 for 24 hrs. Nuclei were stained with DAPI. TUNEL assay was performed in MDA-MB-468 cells after treatment with 25 nM of (G) SIM-1. Brown-colored TUNEL bodies were visualized at cresyl violet-stained blue nuclei. (H) The number of TUNEL bodies were counted as a percent of 100 cresyl violet-stained blue cells. Ten independent images were counted for the quantification study. Similarly, SIM-2 was assessed for (I) TUNEL and (J) subsequent quantification analyses. […]
LDH Assay. […] Each dose was measured in triplicates. […] The plate was read at 490 nm (background at 680 nm). […]

[2] = tested on: STAT3-dependent tumor-promoting genes; test: cDNA-based gene array of 66 STAT3-dependent genes in MDA-MB-468 cells; format: cell-based, human; settings: 10 nM doses, EGF-stimulated MDA-MB-468
Experimental: FIG. 10 illustrates an embodiment of the present invention and illustrates SIM-1 and SIM-2 inhibit expressions of IL6, RANTES, and other STAT3-dependent tumor promoting genes and proteins. (A) A gene array of STAT3 dependent 66 genes (listed in Table 1) was performed in mRNA samples of MDA-MB-468 cells. Realtime PCR plate coated with 66 primer sets of STAT3-dependent genes was run for four conditions including control, EGF (25 ng/mL), EGF+SIM-1 (10 nM) and EGF+SIM-2 (10 nM). The resultant Ct value was normalized with four different housekeeping genes, and then summarized with a heatmap analyses drawn in Morpheus server of Broad Institute. […] (C) The cloning of STAT3 response element of IL6 promoter upstream of GFP reporter was performed by GeneCopoea genome editing service (Rockville, MD). The bit score map and sequence of consensus STAT3 response element or SEQ ID NO: 2 was shown below. […] After that live cells were recorded at Ex:Em=485/535 nm wavelength for GFP activity. […] (G) The GFP reporter activity was measured where the scrambled gene was cloned upstream of eGFP reporter. […]
Gene array. […] After that, mRNA was isolated using the Gene Jet RNA purification kit (Cat. #K0732), quantified by Bio-Rad Smart Spec™ plus spectrophotometer, converted to cDNA by GoScript™ CDNA synthesis kit, as per the manufacturer's instructions. […]

## O=C(O)CCC(=O)NCc1csc2ccc(Cl)cc12 [SIM-1, 4-[(5-chloro-1-benzothiophen-3-yl)methylamino]-4-oxobutanoic acid]
[1]
  cell death in HMEC cells (LDH) compared to DMSO control: unable to augment any significant cell death
[2]
  expressions of tumor-promoting factors, inflammatory cytokine, metastatic and anti-apoptotic genes (AKT, IL6, RANTES, MMPs, Cyclin D1, Bcl-2 etc.): strongly attenuated

## CCOC(=O)c1c(NC(C)=O)sc2c(Cl)c(/C=N/O)ccc12 [SIM-2, ethyl 2-acetamido-7-chloro-6-(hydroxyiminomethyl)-1-benzothiophene-3-carboxylate]
[1]
  cell death in HMEC cells (LDH) compared to DMSO control: unable to augment any significant cell death
[2]
  expressions of tumor-promoting factors, inflammatory cytokine, metastatic and anti-apoptotic genes (AKT, IL6, RANTES, MMPs, Cyclin D1, Bcl-2 etc.): strongly attenuated
